Reference: patent US9963467B2, “Boronic acid derivatives and therapeutic uses thereof” (Rempex Pharmaceuticals, Inc., priority 2014, dated 2018)

Columns and labels:
[1] = system: ec302 (TEM-10); assay: Tigemonam potentiation (MPC@4), ec302; type: cell-based
[2] = molecular target: SHV-12 (Klebsiella pneumoniae, UniProt P0AD64, E235K/G234S/L31Q); assay: Ki, nitrocefin cleavage by purified enzyme, SHV-12; type: biochemical; details: nitrocefin reporter substrate; read-out: Ki (SHV-12, NCF)
Method in brief: (§1)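 Readout: nitrocefin hydrolysis, A490 recorded every 10 sec over 10 min. Enzyme and inhibitor (varied concentrations) preincubated 10 min, RT, in reaction buffer before substrate addition.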

[3] = system: KP1004 (KPC-2); assay: Aztreonam potentiation (MPC@4), KP1004; type: cell-based; details: BLI with aztreonam at 4 μg/mL
[4] = system: EC1010 (CMY-6); assay: Tigemonam potentiation (MPC@4), EC1010; type: cell-based; details: BLI with tigemonam at 4 μg/mL
[5] = system: ec302 (TEM-10); assay: Aztreonam potentiation (MPC@4), ec302; type: cell-based; details: BLI with aztreonam at 4 μg/mL
[6] = system: EC1010 (CMY-6); assay: organism not typed; type: cell-based
[7] = system: KP1005 (CTX-M-14); assay: Tigemonam potentiation (MPC@4), KP1005; type: cell-based; details: BLI with tigemonam at 4 μg/mL
[8] = system: ECL1002; assay: Aztreonam potentiation (MPC@4), ECL1002; type: cell-based; details: BLI with aztreonam at 4 μg/mL
[9] = system: KP1009 (CTX-M-15); assay: Tigemonam potentiation (MPC@4), KP1009; type: cell-based; details: BLI with tigemonam at 4 μg/mL
[10] = molecular target: Pa AmpC (Pseudomonas aeruginosa, UniProt P24735); assay: Ki, nitrocefin cleavage by purified enzyme, Pa AmpC; type: biochemical; details: nitrocefin reporter substrate; read-out: Ki (Pa AmpC, NCF)
Pa AmpC, sequence (P24735 27-397): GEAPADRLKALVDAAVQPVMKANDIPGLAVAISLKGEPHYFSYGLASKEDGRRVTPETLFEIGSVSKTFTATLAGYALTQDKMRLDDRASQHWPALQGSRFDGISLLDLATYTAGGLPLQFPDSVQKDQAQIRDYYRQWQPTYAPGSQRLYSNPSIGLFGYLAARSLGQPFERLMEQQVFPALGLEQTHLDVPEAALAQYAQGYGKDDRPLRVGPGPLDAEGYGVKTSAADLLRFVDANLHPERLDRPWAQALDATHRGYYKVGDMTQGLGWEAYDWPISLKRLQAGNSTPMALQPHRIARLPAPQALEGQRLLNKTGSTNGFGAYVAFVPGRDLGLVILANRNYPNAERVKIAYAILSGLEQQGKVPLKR
Method in brief: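 Purified enzymes are exposed to inhibitor concentrations in reaction buffer for 10 min at room temperature. Nitrocefin is then added. Cleavage is read at 490 nm every 10 sec for 10 min, giving Ki.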

[11] = system: KP1010 (SHV-12); assay: Tigemonam potentiation (MPC@4), KP1010; type: cell-based
[12] = system: ECL1002; assay: Tigemonam potentiation (MPC@4), ECL1002; type: cell-based; details: BLI with tigemonam at 4 μg/mL
[13] = system: ec308 (SHV-5); assay: Tigemonam potentiation (MPC@4), ec308; type: cell-based
[14] = molecular target: P99 (Enterobacter cloacae, UniProt P05364); assay: Ki, nitrocefin cleavage by purified enzyme, P99; type: biochemical; details: nitrocefin reporter substrate; read-out: Ki (P99, NCF)
P99, sequence (P05364 21-381): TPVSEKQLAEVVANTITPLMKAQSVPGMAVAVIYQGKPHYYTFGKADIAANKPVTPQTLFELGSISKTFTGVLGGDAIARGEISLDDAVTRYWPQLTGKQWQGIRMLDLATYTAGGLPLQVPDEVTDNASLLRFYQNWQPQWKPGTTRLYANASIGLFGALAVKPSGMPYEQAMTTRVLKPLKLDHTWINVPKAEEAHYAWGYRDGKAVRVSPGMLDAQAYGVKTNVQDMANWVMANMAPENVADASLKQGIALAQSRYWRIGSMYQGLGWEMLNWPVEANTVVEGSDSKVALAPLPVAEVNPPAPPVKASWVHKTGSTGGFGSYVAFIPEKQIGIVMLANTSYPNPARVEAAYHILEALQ
Method in brief: as §1

[15] = molecular target: KPC-2 (Klebsiella pneumoniae, UniProt Q9F663); assay: Ki, nitrocefin cleavage by purified enzyme, KPC-2; type: biochemical; details: nitrocefin reporter substrate; read-out: Ki (KPC-2, NCF)
KPC-2, sequence (Q9F663 25-293, looked up, species assumed): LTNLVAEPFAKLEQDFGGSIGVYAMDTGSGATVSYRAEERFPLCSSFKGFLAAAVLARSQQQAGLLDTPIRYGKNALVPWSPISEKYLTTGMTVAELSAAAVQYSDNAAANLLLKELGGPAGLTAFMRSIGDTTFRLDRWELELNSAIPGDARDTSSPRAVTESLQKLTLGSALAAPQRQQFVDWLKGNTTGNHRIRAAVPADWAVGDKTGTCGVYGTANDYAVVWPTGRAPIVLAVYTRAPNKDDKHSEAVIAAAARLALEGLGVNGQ
Method in brief: as §1

[16] = system: KP1086 (OXA-48); assay: Biapenem potentiation (MPC@1), KP1086; details: BLI with biapenem at 1 μg/mL
[17] = system: KP1004 (KPC-2); assay: Biapenem potentiation (MPC@1), KP1004; details: BLI with biapenem at 1 μg/mL
[18] = molecular target: CTX-M-14 (Escherichia coli, UniProt Q9L5C7); assay: Ki, nitrocefin cleavage by purified enzyme, CTX-M-14; type: biochemical; details: nitrocefin reporter substrate; read-out: Ki (CTX-M-14, NCF)
CTX-M-14, sequence (Q9L5C7 29-291): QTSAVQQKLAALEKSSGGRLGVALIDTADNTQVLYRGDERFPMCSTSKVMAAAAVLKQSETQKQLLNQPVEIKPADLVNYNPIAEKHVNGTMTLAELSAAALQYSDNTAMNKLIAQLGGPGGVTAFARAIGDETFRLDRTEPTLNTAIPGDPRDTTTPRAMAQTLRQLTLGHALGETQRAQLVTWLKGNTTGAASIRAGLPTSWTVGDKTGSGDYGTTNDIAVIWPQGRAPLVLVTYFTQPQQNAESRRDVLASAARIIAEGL
Method in brief: as §1

[19] = Monomer content of pH adjusted aqueous solutions (LC-UV); type: physicochemical; details: 1 mg/mL aqueous salt solution, pH adjusted to 7.6 to 8, LC-UV
Procedure: Boronic acid containing compounds are known to undergo oligomerization. The presence of oligomers can greatly complicate drug development, as they represent new chemical species whose content must be controlled and qualified by testing in toxoicology studies. The monomer content of compounds was evaluated by adjusting aqueous solutions to physiological pH at various concentrations. The monomer content of pH adjusted solutions was measured using LC-UV. Test compounds were weighed out into a 1.5 mL Eppendorf tube. A solution of water was prepared in 1.00 mg/mL, 10.0 mg/mL or 100 mg/mL concentrations of the compound based on active fraction. A volume 20 uL was subtracted to allow room for addition of acid or base to adjust pH. The solution pH was measured. The pH was then adjusted through addition of acid or base as necessary until the reading was in the 7.6 to 8 range. A final pH measurement was made after ensuring all the compound was in solution. The solution was injected onto LC-UV in 0.1 uL to 5 uL volume within less than half an hour after the time the sample was prepared. Elution was done using 0.1% TFA in water for mobile phase A and 0.085% TFA in methanol for mobile phase B on an Excel ACE 5 Super C18 2.1×100 mm column at 0.6 ml/min flow rate with 9 min gradient, 3.9 minute hold at 90% B and 18 minute run time. The absorption was measured at 220, 254 and 300 nm with a 4 nm bandwidth.

[20] = molecular target: OXA-48 (Klebsiella pneumoniae, UniProt Q6XEC0); assay: Ki, nitrocefin cleavage by purified enzyme, OXA-48; type: biochemical; details: nitrocefin reporter substrate; read-out: Ki (OXA-48, NCF)
OXA-48, sequence (Q6XEC0 23-265, looked up, species assumed): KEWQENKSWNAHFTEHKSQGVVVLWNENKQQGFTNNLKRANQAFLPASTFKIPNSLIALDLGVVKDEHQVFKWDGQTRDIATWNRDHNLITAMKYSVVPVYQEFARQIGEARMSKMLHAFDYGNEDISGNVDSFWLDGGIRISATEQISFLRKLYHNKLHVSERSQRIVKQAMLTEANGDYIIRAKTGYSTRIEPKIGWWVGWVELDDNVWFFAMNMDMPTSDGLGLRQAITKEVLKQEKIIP
Method in brief: as §1

SHV-12, sequence (P0AD64 22-286 L31Q/G234S/E235K): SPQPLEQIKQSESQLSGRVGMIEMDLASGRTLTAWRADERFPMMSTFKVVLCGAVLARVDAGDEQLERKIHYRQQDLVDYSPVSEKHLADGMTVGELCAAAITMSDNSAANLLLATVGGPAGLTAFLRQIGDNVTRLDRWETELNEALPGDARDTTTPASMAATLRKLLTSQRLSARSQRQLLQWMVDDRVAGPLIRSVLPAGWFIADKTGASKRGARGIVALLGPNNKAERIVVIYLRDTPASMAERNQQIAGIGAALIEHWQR

Row | SMILES | TIG MPC4 TEM-10 ec302 [1] | Ki [2] [µM] | AZT MPC4 KPC-2 KP1004 [3] | TIG MPC4 CMY-6 EC1010 [4] | AZT MPC4 TEM-10 ec302 [5] | AZT MPC4 CMY-6 EC1010 [6] | TIG MPC4 CTX-M-14 KP1005 [7] | AZT MPC4 ECL1002 [8] | TIG MPC4 CTX-M-15 KP1009 [9] | Ki [10] [µM] | TIG MPC4 SHV-12 KP1010 [11] | TIG MPC4 ECL1002 [12] | TIG MPC4 SHV-5 ec308 [13] | Ki [14] [µM] | Ki [15] [µM] | BPM MPC1 OXA-48 KP1086 [16] | BPM MPC1 KP1004 KPC-2 [17] | Ki [18] [µM] | % Monomer in 1 mg/mL salt solution [19] [%] | Ki [20] [µM]
1 | CSCC(=O)N[C@H]1Cc2ccc(SCC(N)=O)c(C(=O)O)c2OB1O [Compound 22, (R)-7-(2-amino-2-oxoethylthio)-2-hydroxy-3-(2-(methylthio)acetamido)-3,4-dihydro-2H-benzo[e][1,2]oxaborinine-8-carboxylic acid] | Y (key: X: MIC of less than 1 ng/mL; Y: MIC of 1 μg/mL to 10 μg/mL; Z: MIC of greater than 10 μg/mL) | < 0.001 | Y (MIC of 1 μg/mL to 10 μg/mL) | X (MIC of less than 1 μg/mL) | Y (MIC of 1 μg/mL to 10 μg/mL) | Y (key: X: MIC of less than 1 ng/mL; Y: MIC of 1 μg/mL to 10 μg/mL; Z: MIC of greater than 10 μg/mL) | X (MIC of less than 1 μg/mL) | Y (MIC of 1 μg/mL to 10 μg/mL) | X (MIC of less than 1 μg/mL) | > 0.01 | X (key: X: MIC of less than 1 μg/mL; Y: MIC of 1 μg/mL to 10 μg/mL; Z: MIC of greater than 10 μg/mL) | Y (MIC of 1 μg/mL to 10 μg/mL) | X (key: X: MIC of less than 1 μg/mL; Y: MIC of 1 μg/mL to 10 μg/mL; Z: MIC of greater than 10 μg/mL) | > 0.01 | > 0.01 | Z (MIC of greater than 10 μg/mL) | X (MIC of less than 1 μg/mL) | < 0.001 | – | –
2 | CSCC(=O)N[C@H]1Cc2ccc(SC3CNC3)c(C(=O)O)c2OB1O [Compound 11, (R)-7-(azetidin-3-ylthio)-2-hydroxy-3-(2-(methylthio)acetamido)-3,4-dihydro-2H-benzo oxaborinine-8-carboxylic acid] | Z (key: X: MIC of less than 1 ng/mL; Y: MIC of 1 μg/mL to 10 μg/mL; Z: MIC of greater than 10 μg/mL) | 0.001 to 0.01 | Y (MIC of 1 μg/mL to 10 μg/mL) | X (MIC of less than 1 μg/mL) | Y (MIC of 1 μg/mL to 10 μg/mL) | Y (key: X: MIC of less than 1 ng/mL; Y: MIC of 1 μg/mL to 10 μg/mL; Z: MIC of greater than 10 μg/mL) | X (MIC of less than 1 μg/mL) | Y (MIC of 1 μg/mL to 10 μg/mL) | Y (MIC of 1 μg/mL to 10 μg/mL) | > 0.01 | X (key: X: MIC of less than 1 μg/mL; Y: MIC of 1 μg/mL to 10 μg/mL; Z: MIC of greater than 10 μg/mL) | X (MIC of less than 1 μg/mL) | X (key: X: MIC of less than 1 μg/mL; Y: MIC of 1 μg/mL to 10 μg/mL; Z: MIC of greater than 10 μg/mL) | > 0.01 | > 0.01 | Y (MIC of 1 μg/mL to 10 μg/mL) | X (MIC of less than 1 μg/mL) | 0.001 to 0.01 | 88.0 | 0.001 to 0.01
